Source: ChEMBL document CHEMBL1201862, “PubChem BioAssay data set” (2004)
Calls of active or inactive are those of the source.

Key:
HEK293 = assay: EBV LMP1 TES2 canonical NF-kB signalling blockers – cell-based, HEK293, luciferase, cherry-pick, dose response (AID 588343); type: functional; settings: Homo sapiens
[1] = biological target: T1, Endoribonuclease toxin MazF (Escherichia coli K-12, UniProt P0AE70); assay: activation of MazEF endoribonuclease cleavage – biochemical, fluorescence, single-stranded RNA substrate, uHTS hits, dose response (AID 588481); type: functional
T1 sequence (P0AE70 whole entry): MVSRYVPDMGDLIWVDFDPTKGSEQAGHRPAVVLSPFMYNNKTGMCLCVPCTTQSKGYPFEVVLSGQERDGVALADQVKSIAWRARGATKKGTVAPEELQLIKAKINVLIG

[2] = biological target: T1, Endoribonuclease toxin MazF; assay: substrate-only fluorescence increase artefacts – biochemical, single-stranded RNase substrate, counter-screen for MazEF activator project, dose response (AID 588502); type: functional
Genome polyprotein = Genome polyprotein (dengue virus type 2, UniProt P29990); assay: flavivirus cap methylation enzyme inhibition – biochemical, confirmation dose response, primary screen (AID 588689); type: functional
[3] = biological target: T2, Rac GTPase-activating protein 1 (Homo sapiens, UniProt Q9H0H5); assay: blockers of MgcRacGAP-driven Rac1 GTP hydrolysis – biochemical, ADP Hunter fluorescence, primary and confirmatory, confirmation (AID 624330); type: functional
T2 sequence (Q9H0H5 whole entry): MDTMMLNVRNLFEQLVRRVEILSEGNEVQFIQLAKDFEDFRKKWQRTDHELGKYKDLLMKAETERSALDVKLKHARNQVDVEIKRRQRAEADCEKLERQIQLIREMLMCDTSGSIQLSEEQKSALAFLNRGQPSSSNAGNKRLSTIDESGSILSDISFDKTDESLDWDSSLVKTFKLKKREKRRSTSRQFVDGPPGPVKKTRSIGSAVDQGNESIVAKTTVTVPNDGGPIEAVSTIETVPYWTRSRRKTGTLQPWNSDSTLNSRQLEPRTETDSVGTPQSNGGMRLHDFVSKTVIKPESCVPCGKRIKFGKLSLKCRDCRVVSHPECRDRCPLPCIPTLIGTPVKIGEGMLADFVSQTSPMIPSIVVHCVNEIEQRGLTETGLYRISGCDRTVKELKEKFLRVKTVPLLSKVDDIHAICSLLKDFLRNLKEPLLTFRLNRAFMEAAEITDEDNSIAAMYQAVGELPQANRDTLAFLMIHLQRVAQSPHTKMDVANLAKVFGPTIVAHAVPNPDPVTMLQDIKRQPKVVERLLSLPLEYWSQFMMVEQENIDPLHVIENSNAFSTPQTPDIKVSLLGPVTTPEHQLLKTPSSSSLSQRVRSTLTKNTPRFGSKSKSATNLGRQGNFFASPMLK

Paired box protein Pax-8 = Paired box protein Pax-8 (Homo sapiens, UniProt Q06710); assay: PAX8 transcriptional activity inhibition in RMG-I – RMG-I cells, luciferase, cherry-pick, dose response (AID 687027); type: functional, cell-based;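 further: luciferase reporter driven by Pax8 target thyroperoxidase promoter measured by SteadyGlo luminescence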
Caspase-6 = biological target: T3, Caspase-6 (Homo sapiens, UniProt P55212); assay: inhibition of CASP6 peptide cleavage – biochemical, VEID-R110 fluorescence, cherry-pick, dose response (AID 720632)
T3 sequence (P55212 whole entry): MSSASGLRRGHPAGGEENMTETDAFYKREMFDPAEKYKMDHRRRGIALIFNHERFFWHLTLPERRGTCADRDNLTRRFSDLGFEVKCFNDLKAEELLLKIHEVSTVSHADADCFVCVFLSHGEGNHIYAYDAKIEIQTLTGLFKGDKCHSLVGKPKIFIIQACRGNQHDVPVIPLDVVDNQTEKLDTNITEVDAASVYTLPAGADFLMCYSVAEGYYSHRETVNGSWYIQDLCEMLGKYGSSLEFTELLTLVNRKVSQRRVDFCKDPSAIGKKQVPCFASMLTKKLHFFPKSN

[4] = Trypanosoma cruzi growth suppression in host cells – NIH3T3 host cells, beta-gal luminescence, confirmation (AID 2044); type: functional, cell-based;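 further: intracellular parasites grown in NIH/3T3 mouse fibroblasts as host cells; luminescent beta-galactosidase reporter signal from transgenic T. cruzi replicating inside host cells; inhibitors lower the luminescence signal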
[5] = NIH3T3 cell viability loss – ATP luminescence, mouse fibroblasts, counter-screen, dose response (AID 2010); type: functional, cell-based;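 further: cells exposed to compound for about 90 hours before reading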
[6] = biological target: T4, Replicative DNA helicase DnaB (Mycobacterium tuberculosis, UniProt P9WMR3); assay: DnaB intein splicing inhibitors, dose response, biochemical, cell-free fluorescence (AID 449749); type: functional
T4 sequence (P9WMR3 whole entry): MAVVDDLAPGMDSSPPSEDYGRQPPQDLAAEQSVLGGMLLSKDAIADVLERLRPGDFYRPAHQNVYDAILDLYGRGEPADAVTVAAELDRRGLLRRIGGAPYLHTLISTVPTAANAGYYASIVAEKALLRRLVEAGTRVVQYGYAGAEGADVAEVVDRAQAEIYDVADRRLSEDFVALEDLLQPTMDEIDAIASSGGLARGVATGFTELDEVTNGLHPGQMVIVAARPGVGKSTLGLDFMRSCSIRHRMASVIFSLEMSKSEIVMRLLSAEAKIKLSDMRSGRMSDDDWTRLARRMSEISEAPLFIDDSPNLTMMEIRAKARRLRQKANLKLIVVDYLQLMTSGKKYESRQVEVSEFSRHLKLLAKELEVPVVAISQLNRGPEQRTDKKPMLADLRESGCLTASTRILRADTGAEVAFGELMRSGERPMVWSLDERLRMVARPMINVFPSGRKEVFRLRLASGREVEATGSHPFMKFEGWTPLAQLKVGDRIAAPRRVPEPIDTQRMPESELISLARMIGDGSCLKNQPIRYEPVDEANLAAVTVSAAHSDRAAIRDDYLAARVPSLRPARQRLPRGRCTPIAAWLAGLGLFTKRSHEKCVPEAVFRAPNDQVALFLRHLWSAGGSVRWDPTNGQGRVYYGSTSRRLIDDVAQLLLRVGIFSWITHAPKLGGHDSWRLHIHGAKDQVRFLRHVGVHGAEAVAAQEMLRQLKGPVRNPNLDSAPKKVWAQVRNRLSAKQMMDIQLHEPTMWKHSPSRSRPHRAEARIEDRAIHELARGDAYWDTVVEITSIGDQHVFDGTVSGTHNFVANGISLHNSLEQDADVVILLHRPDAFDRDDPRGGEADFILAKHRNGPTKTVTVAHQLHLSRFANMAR

[7] = biological target: T5, Apoptotic protease-activating factor 1 (Homo sapiens, UniProt O14727); type: functional
T5 sequence (O14727 whole entry): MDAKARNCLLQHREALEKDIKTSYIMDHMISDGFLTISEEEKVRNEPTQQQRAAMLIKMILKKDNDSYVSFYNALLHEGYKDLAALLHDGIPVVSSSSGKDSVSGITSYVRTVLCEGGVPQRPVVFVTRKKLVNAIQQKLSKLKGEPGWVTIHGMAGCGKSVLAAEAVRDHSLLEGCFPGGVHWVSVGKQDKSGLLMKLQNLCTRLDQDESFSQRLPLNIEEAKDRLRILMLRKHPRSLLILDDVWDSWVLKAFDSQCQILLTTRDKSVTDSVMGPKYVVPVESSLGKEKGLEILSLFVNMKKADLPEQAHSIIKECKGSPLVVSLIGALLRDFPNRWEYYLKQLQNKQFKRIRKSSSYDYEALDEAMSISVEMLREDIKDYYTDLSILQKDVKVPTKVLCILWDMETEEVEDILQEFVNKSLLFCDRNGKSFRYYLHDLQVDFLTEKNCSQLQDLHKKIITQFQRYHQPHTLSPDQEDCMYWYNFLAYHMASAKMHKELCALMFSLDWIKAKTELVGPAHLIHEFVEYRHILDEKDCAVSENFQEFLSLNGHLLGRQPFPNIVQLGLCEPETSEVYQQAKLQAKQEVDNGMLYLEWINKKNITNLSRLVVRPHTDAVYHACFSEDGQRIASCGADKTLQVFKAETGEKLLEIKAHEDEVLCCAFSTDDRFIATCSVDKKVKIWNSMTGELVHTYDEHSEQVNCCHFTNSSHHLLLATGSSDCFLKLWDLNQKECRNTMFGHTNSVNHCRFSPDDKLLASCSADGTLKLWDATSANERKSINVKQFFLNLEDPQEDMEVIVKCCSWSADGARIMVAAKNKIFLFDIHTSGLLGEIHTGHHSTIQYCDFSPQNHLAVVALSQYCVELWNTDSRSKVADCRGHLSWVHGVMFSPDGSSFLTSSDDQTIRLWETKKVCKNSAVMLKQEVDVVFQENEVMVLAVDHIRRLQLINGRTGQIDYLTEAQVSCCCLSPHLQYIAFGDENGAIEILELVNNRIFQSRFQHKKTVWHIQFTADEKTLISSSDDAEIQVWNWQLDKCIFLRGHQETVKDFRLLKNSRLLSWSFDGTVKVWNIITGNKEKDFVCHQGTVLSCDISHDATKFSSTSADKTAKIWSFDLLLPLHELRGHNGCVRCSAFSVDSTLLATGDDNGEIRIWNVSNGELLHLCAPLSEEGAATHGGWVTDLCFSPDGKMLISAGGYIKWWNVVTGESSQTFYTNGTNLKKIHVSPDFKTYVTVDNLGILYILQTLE

Protein RecA = biological target: T6, Protein RecA (Mycobacterium tuberculosis, UniProt P9WHJ3); assay: Fluorescence Cell-Free Homogeneous Dose Retest to Identify Inhibitors of RecA-Intein Splicing Activity. [Related pubchem assays (depositor defined):AID2097, AID2223, AID489010, AID492950]; type: functional
T6 sequence (P9WHJ3 whole entry): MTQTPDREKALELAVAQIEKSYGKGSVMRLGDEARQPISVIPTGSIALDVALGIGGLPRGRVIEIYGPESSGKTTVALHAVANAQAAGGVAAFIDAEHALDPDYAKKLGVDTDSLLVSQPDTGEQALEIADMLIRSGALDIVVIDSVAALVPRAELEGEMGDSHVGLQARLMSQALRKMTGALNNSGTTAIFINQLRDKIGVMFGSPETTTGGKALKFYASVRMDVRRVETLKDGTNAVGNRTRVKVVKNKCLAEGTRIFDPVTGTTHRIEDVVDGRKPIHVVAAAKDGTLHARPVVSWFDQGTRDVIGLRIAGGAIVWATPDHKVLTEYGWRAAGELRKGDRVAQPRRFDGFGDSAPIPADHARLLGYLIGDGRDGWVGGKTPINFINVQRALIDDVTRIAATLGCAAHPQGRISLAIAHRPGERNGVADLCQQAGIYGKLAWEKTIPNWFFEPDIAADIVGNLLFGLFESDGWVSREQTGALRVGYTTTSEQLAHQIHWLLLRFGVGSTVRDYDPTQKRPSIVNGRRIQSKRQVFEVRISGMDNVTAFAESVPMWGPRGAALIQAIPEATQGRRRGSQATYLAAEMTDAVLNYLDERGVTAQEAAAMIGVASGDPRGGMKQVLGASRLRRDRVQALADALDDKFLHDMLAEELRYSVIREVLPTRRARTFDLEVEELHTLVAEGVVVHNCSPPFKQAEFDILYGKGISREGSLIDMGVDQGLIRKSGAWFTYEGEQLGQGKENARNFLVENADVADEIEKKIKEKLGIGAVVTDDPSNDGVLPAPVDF

INS1 = assay: INS-1E survival protection against cytokine death – cell-based, luminescence, retest, dose response (AID 449756); type: functional; settings: Rattus norvegicus;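 further: cell death triggered by IL-1 beta plus TNF-alpha plus IFN-gamma mixture; protective hits raise ATP signal compared with cytokine alone wells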
[8] = biological target: Dual specificity tyrosine-phosphorylation-regulated kinase 1A (Rattus norvegicus, UniProt Q63470); type: biochemical, Homo sapiens
[9] = biological target: T7, Tyrosyl-DNA phosphodiesterase 2 (Homo sapiens, UniProt O95551); assay: potency against TDP2 phosphodiesterase activity – biochemical, epi absorbance, IC50, dose response (AID 743297)
T7 sequence (O95551 whole entry): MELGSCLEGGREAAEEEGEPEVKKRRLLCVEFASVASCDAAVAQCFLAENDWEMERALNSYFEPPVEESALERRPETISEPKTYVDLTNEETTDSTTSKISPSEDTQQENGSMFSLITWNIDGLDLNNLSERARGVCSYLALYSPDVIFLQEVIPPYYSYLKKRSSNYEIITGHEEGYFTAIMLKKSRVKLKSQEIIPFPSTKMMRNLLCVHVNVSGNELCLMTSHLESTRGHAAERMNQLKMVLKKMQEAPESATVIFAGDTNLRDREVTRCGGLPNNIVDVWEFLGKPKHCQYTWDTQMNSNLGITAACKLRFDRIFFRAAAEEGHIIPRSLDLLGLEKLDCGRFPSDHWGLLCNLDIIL

Chain of Paired box protein Pax-8 (Q06710 whole entry): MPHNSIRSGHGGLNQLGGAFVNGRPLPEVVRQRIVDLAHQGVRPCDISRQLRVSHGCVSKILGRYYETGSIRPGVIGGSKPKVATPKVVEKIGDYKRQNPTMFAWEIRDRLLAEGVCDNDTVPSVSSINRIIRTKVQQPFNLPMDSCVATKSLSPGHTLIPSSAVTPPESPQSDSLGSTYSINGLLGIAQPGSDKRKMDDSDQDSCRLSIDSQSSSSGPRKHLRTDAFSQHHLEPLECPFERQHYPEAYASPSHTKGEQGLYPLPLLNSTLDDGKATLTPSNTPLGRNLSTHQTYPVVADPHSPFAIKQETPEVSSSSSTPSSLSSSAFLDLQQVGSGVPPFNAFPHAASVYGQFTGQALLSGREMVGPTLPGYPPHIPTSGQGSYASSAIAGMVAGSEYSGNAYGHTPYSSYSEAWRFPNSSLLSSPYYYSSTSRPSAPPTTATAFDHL
Chain of Genome polyprotein (P29990 2492-3391 limits assumed): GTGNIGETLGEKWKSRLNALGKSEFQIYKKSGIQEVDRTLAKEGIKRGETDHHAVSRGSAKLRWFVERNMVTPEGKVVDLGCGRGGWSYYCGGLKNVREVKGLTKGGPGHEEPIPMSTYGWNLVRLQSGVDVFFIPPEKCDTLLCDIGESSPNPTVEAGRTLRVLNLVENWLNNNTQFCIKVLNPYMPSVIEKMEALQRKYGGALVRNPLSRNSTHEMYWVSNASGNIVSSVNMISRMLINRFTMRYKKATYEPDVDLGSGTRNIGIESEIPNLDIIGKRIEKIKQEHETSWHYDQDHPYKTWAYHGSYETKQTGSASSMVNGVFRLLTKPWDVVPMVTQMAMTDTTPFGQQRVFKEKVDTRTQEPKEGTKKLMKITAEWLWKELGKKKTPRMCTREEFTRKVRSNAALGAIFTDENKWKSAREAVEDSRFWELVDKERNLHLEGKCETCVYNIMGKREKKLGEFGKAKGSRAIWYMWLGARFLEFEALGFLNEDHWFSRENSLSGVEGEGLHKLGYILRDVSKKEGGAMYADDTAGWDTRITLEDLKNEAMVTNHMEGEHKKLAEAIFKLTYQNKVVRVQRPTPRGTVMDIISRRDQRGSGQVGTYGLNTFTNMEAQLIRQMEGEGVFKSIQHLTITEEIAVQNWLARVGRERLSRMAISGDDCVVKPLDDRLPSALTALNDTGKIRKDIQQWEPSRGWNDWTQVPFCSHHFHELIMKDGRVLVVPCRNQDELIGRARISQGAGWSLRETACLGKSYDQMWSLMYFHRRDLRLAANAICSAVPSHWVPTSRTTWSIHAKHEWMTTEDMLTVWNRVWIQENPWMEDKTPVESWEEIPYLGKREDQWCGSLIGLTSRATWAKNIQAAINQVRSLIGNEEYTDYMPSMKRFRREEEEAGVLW

**Q.** With `CC(C)Nc1nnc(SCC(=O)c2c(N)n(Cc3ccccc3)c(=O)n(C)c2=O)s1` as the molecule, how does the AC50 (HEK293) read?
**A.** 101 µM (active)

**Q.** Which results are given for `Cc1ccc(-n2nnnc2SCC(=O)c2c(N)n(C3CC3)c(=O)[nH]c2=O)cc1C`?
**A.** EC50 [1]: > 99 µM (inactive); EC50 [2]: > 99 µM (inactive)

**Q.** Which results are given for `Nc1nc(Sc2ccc([N+](=O)[O-])c3nonc23)c2[nH]cnc2n1`?
**A.** IC50 (Genome polyprotein): 16 µM (active); IC50 [3]: 49.7 µM (active); AC50 (Paired box protein Pax-8): 2.17 µM (active); AC50 (Caspase-6): 5.68 µM (active)

**Q.** For `Cc1ccc(NC2=C(N3CCCCC3)C(=O)c3ccccc3C2=O)cc1`, which EC50 [4] is on record?
**A.** 629 nM (active)

**Q.** And the EC50 [5]?
**A.** > 30 µM (not active)

**Q.** What about the AC50 [6] of the same molecule?
**A.** 7.31 µM (active)

**Q.** What about the IC50 [7] of the same molecule?
**A.** 4.88 µM (active)

**Q.** And the EC50 (Protein RecA)?
**A.** 619 nM (active)

**Q.** And the AC50 (INS1)?
**A.** 489 nM (active)

**Q.** What about the AC50 [8] of the same molecule?
**A.** 11 µM (active)

**Q.** What about the IC50 [9] of the same molecule?
**A.** > 128 µM (inactive)
